Measurements as given in US20240139197A1, “INHIBITION OF KDM5A FOR PROMOTING ANTIGEN PRESENTATION, INCREASING CD8+ T CELL INFILTRATION AND BOOSTING ANTI-TUMOR IMMUNE RESPONSE” (The Wistar Institute of Anatomy and Biology, priority 2022, published 2024).

What was measured:
Assay type in all cases: cell-based, mouse
H2-K1 in ID8 cells = assay: H2-K1 expression by RT-qPCR; conditions: ID8, with IFNγ treatment
Excerpt: (§1) FIG. 4A-FIG. 4M show KDM5A regulates antigen processing and presentation pathway. (FIG. 4A) Experimental strategy used to identify Kdm5a direct target genes. […] (FIG. 4B) CUT&RUN tracks of the newly identified Kdm5a target gene H2-K1 for Kdm5a and H3K4me3 in ID8 cells. (FIG. 4C) Expression of H2-K1 in doxycycline-inducible shKdm5a ID8 cells, Kdm5a inhibitor CPI-455, or Kdm5a knockout cells with or without IFNγ stimulation determined by RT-qPCR. (FIG. 4D) Cell surface expression of H2-K1 in control and Kdm5a knockout ID8 cells with or without IFNy stimulation was determined by FACS analysis. (FIG. 4E) Quantification of FIG. 4D. (FIG. 4F) Cell surface expression of H2-K1 in control and doxycyclineinducible Kdm5a-knockdown ID8 cells with or without IFNγ stimulation was determined by FACS analysis. (FIG. 4G) Quantification of FIG. 4F. (FIG. 4H) Cell surface expression of H2-K1 in D8 cells treated with vehicle or CPI-455 with or without IFNγ stimulation was determined by FACS analysis. (FIG. 4I) Quantification of FIG. 4H; An isotype matched IgG was used as a negative control for all the FACS analysis. […] Data represent mean±SEM of three biological repeats; P-value was calculated by using a two-tailed Student t test except in FIG. 4L by using Pearson r analysis test and FIG. 4M by using Fisher's exact test. […]

H2-K1 on ID8 cells = assay: cell surface MHC class I H2-K1 by FACS, ID8; conditions: ID8, in response to IFNγ
Excerpt: as §1

[1] = system: H2-K1 gene promoter in ID8 cells; assay: ChIP at H2-K1 gene promoter; conditions: ID8, IFNγ, anti-H3K4me3 ChIP
Excerpt: as §1

CPI-455
expression of H2-K1 (H2-K1 in ID8 cells): upregulated
MHC class I presence on cell surface (H2-K1 on ID8 cells): increased MHC class I presence on cell surface
association of H3K4me3 with H2-K1 gene promoter [1]: increased the association of H3K4me3
